# Test results: patent US7872043B2, “Use of furan alkyls for a cellulite cosmetic treatment” (Laboratories Expanscience, priority 2004, dated 2011)
# What was measured:
# [1] = system: mice fattened on a high fat/high sucrose diet (HF/HS); test: Food intake and weight gain of mice on HF/HS diet; type: in vivo; conditions: curative; TZD 10 mg/kg/dy
# Procedure: (§1) We used adult mice (aged 6 weeks) of masculine gender fattened on a high fat/high sucrose diet (HF/HS). Feeding with the HF/HS diet began on mice aged 6 weeks and continued throughout the period of the study. The study was conducted along 2 axes: • prevention: the product was administered as soon as feeding began with the HF/HS diet; • management (curative): the product was administered 12 weeks after the start of the HF/HS diet. Total treatment time (preventive and curative): 23 weeks.
# (§2) Each experimental group comprised 10 mice.
# [2] = system: mice fattened on a high fat/high sucrose diet (HF/HS); test: Blood parameters: plasma lipids (total cholesterol, LDL, HDL, TG, FFA); type: in vivo; conditions: TZD 10 mg/kg/day; for HDL / Total cholesterol: (3 W***)
# Procedure: as §1, §2
# (§3) Subsequently the following were analysed: lipoprotein profile (by size exclusion chromatography); apolipoportein A1; lipid composition of the liver (liver triglycerides, cholesterol and free fatty acids); histological analysis of the liver and adipose tissue; staining of accumulated lipids in the liver.
# (§4) The different cholesterol blood levels and different fractions were analysed using a HPLC method.
# [3] = system: mice fattened on a high fat/high sucrose diet (HF/HS); test: Plasma lipoprotein profile (size exclusion chromatography); type: in vivo; conditions: TZD
# Procedure: as §1, §2, §3, §4
# [4] = system: mice fattened on a high fat/high sucrose diet (HF/HS); test: Blood glucose and insulin analysis; type: in vivo; conditions: TZD 10 mg/kg/day
# Procedure: as §1, §2, §3
# [5] = system: mice fattened on a high fat/high sucrose diet (HF/HS); test: Intra Peritoneal Insulin Sensitive Test (IPIST); type: in vivo; conditions: preventive; TZD 10 mg/kg/day; (3 W***)
# From the text: Diabetics suffer from an increase in insulin resistance which leads to hyperglycaemia.
# [6] = system: mice fattened on a high fat/high sucrose diet (HF/HS); test: Hepatic metabolism: transaminases and alkaline phosphatase (liver toxicity); type: in vivo; conditions: TZD and AV102 groups; considered very moderate, does not appear to reflect liver toxicity
# ACO (target PPARα) = test: Liver mRNA expression, real-time Q-RT-PCR: ACO; type: in vivo; conditions: TZD; AV102 (0.25%); 5 mice per group
# Procedure: (§5) In the liver, the mRNA expressions of 8 genes were determined in 5 mice of each group using real-time Q-RT-PCR analysis.
# PEPCK (target PPARγ) = test: Liver mRNA expression, real-time Q-RT-PCR: PEPCK; type: in vivo, mice; conditions: TZD; AV102 (0.25%)
# Procedure: as §5
# CYP7A1 = test: Liver mRNA expression, real-time Q-RT-PCR: CYP7A1; type: in vivo, mice; conditions: TZD; AV102 (0.25%)
# Procedure: as §5
# [7] = system: ME, FAS, ACC (fatty acid synthesis); test: Liver mRNA expression, real-time Q-RT-PCR: ME, FAS, ACC; type: in vivo, mice; conditions: TZD; AV102 (0.25%)
# Procedure: as §5
# [8] = system: PGC-1 (mitochondria biogenesis); test: Muscle/BAT mRNA expression: PGC-1; type: in vivo, mice; conditions: TZD, AV102 (0.25%)
# Procedure: In the brown adipose tissue (BAT) and in the muscles, the mRNA expression of 3 genes was determined in 5 mice of each group by real-time Q-RTR-PCR analysis.
smiles,measurement,setting,value
"CN(CCOc1ccc(CC2SC(=O)NC2=O)cc1)c1ccccn1 (stereo not drawn) [TZD, Rosiglitazone]",Mouse wt.,[1],did not cause the overweight mice to lose weight
same,LDL,[2]; curative,reduction
same,TG (Triglycerides),[2]; curative,No change
same,HDL,[2]; curative,reduction
same,Total cholesterol,[2]; curative,reduction
same,LDL,[2]; preventive,downward trend
same,TG (Triglycerides),[2]; preventive,significantly reduced
same,HDL,[2]; preventive,significant reduction
same,Total cholesterol,[2]; preventive,significant reduction
same,Fractions of HDL and VLDL cholesterol (lipoprotein profiles),"[3]; curative, after 3 weeks' treatment",reduction
same,"HDL, LDL and VLDL cholesterol fractions (plasma lipoprotein profiles)","[3]; preventive, weeks 8 and 15",reduction
same,GLUCOSE (blood),"[4]; curative, (3 W**)",dropped considerably and ↓↓
same,GLUCOSE (blood),[4]; preventive,↓
same,INSULIN (blood),[4]; preventive,↓
same,IPIST (insulin sensitivity test),[5],↓↓
same,Plasma ALP,[6],increase
same,ACO (target PPARα) mRNA in the liver,ACO (target PPARα),↑
same,PEPCK (target PPARγ) mRNA in the liver,PEPCK (target PPARγ),↑
same,CYP7A1 (conversion oxysterol into biliary acids) mRNA in the liver,CYP7A1,↑↑
same,"ME, FAS, ACC (fatty acid synthesis) mRNA in the liver",[7],↑↑
same,PGC-1 (mitochondria biogenesis) mRNA in muscle/BAT,[8],↑ (muscle)
